Assay results published in publication PMC3038857, “Using Nuclear Receptor Activity to Stratify Hepatocarcinogens” (PLoS ONE, 2011).

What was measured:
PPARa (PPARA) = target: T1, PPARa (PPARA) (Homo sapiens, UniProt Q07869); experiment: NVS_NR_hPPARa: Human PPARa Fluormone Pan-PPAR green (cell-free HTS); type: binding; details: scale not given, looks like -log10 of molar active concentration, 0 = no activity
T1 sequence (Q07869 1-468): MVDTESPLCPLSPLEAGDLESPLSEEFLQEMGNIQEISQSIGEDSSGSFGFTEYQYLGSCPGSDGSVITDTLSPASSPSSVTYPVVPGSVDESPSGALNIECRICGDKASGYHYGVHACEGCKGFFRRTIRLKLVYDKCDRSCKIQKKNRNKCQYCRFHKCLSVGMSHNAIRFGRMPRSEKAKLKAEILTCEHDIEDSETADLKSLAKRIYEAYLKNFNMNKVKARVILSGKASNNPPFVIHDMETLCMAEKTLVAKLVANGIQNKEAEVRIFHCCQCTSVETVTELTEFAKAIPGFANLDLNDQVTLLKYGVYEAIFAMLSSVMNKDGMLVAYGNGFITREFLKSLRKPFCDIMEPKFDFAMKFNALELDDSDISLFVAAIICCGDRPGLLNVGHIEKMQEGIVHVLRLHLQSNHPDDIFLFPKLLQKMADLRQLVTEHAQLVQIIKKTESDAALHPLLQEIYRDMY
Excerpt: These are a collection of biochemical assays measuring binding constants and enzyme inhibition values. Chemicals were initially screened at a single concentration in duplicate wells at a concentration of 10 [drawing 63] M for cytochrome P-450 assays and 25 [drawing 64] M for all others. […] These assays were run by Caliper Life Sciences (Hanover, MD) under contract to EPA. Short assay descriptions are available at: http://www.caliperls.com/products/contract-research/in-vitro/.
Cell-free HTS Assays: A collection of biochemical assays measuring binding constants and enzyme inhibition values. […] These assays were run by Caliper Life Sciences (Hanover, MD) under contract to EPA. Short assay descriptions are available at http://www.caliperls.com/products/contract-research/in-vitro/. Values for all endpoints were imported into GeneData Screener (Basel, Switzerland) and normalised to solvent controls from the same plate as the tested compounds and expressed as percent of neutral control. Concentration-response curves were fit in GeneData Screener (Basel, Switzerland) Condeseo module using the Hill equation and AC50 values were determined. […] Detailed description of the methods, data and analysis methods for this dataset are described in a separate publication.

[1] = target: T2, ESRRG (estrogen-related receptor gamma) (Homo sapiens, UniProt P62508); experiment: ATG_ERRg_TRANS: Factorial reporter gene assay (HepG2); type: cell-based; parameters: scale not given here
T2 construct: expressed in transfected cells; host or cells: HepG2
T2 sequence (P62508 1-458): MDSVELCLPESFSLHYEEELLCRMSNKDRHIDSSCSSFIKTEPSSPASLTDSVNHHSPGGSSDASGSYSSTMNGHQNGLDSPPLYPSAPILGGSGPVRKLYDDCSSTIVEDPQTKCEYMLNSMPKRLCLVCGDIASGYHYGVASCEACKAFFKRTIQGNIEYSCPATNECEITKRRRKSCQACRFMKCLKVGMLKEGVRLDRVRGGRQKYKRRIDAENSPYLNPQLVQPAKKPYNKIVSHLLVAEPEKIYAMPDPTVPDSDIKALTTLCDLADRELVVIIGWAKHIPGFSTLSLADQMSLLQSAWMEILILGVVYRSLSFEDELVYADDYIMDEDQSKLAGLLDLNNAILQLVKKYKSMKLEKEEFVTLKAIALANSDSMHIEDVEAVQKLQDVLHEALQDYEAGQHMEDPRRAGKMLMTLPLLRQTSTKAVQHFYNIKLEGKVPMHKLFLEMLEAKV
Experimental: A multiple reporter transcription unit (MRTU) library consisting of 48 transcription factor binding sites was transfected into the HepG2 human liver hepatoma cell line. In addition to the cis-acting reporter genes (CIS), a modification of the approach was used to generate a trans-system (TRANS) with a mammalian one-hybrid assay consisting of an additional 25 MRTU library reporting the activity of nuclear receptor super-family members. […] These assays were performed by Attagene Inc. (Morrisville NC) under contract to EPA.
In addition to the cis-acting reporter genes (CIS), a modification of the approach was used to generate a trans-system (TRANS) with a mammalian one-hybrid assay consisting of an additional 25 MRTU library reporting the activity of nuclear receptor super-family members. […] Chemicals were then tested in the CIS and TRANS assays at seven concentrations starting at the MTC and followed by three-fold serial dilutions. These assays were performed by Attagene Inc. (Morrisville NC) under contract to EPA. Detailed description of the methods, data and analysis methods for this dataset will be presented in a separate publication.

[2] = target: T3, ESR1 (estrogen receptor 1) (Homo sapiens, UniProt P03372); experiment: ATG_ERE_CIS: Factorial reporter gene assay (HepG2); type: cell-based; details: HepG2
T3 construct: expressed in transfected cells; host or cells: HepG2
T3 sequence (P03372 whole entry): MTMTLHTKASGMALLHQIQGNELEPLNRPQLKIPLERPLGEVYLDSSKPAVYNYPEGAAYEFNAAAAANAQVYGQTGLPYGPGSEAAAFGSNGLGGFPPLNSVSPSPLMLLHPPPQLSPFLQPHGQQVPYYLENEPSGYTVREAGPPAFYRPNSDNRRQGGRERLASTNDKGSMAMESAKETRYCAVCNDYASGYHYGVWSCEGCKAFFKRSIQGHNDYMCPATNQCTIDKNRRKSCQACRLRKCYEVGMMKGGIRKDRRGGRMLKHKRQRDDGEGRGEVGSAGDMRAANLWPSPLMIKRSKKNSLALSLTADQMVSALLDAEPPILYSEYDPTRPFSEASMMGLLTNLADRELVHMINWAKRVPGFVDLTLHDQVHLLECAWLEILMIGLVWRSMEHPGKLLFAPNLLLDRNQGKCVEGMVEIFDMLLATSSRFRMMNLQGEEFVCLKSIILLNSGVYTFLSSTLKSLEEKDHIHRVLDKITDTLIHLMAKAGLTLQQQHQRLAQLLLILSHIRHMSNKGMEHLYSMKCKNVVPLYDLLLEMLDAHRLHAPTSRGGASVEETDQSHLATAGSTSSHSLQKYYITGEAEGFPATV
In short: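 Seven concentrations per chemical, three-fold dilutions down from the MTC, were tested in HepG2 hepatoma cells. Those cells carried a multiple reporter transcription unit library, read either as cis transcription-factor-site reporters or as a trans mammalian one-hybrid panel for nuclear receptors.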

HMGCS2 = experiment: CLZD_HMGCS2: Change in expression of HMGCS2 (primary human hepatocytes); type: cell-based; details: 24 hr, scale not given, looks like -log10 of molar active concentration, 0 = no activity
Experimental: This is a collection of multiplexed gene expression assays focused on Phase I and II xenobiotic metabolizing enzymes and transporters. Human primary cell cultures were treated with chemicals at 5 concentrations (0.004-40 [drawing 42] M) for 6, 24 and 48 hr. Concentration- and time-response profiles of chemicals were measured by the expression of key nuclear receptor target genes, activities of CYP1A enzymes (EROD), and cell morphology. Fourteen gene targets were monitored by quantitative nuclease protection assay including: six representative cytochrome P-450 genes, four hepatic transporters, three Phase II conjugating enzymes, and one endogenous metabolism gene involved in cholesterol synthesis. The target genes associated with nuclear receptor pathways are as follows: [drawing 43] and [drawing 44] with [drawing 45]; [drawing 46] , [drawing 47] , [drawing 48] , [drawing 49] , [drawing 50] and [drawing 51] with [drawing 52]; [drawing 53] , [drawing 54] , [drawing 55] and [drawing 56] with [drawing 57]; [drawing 58] with [drawing 59]; and [drawing 60] with [drawing 61] . Assays were run in primary human hepatocyte cultures by CellzDirect Invitrogen Inc. (Durham, NC), in collaboration with EPA.
Multiplexed Gene Expression in Human Primary Hepatocytes: This is a collection of multiplexed gene expression assays focused on Phase I and II metabolic enzymes and transporters. […] Fourteen gene targets were monitored by quantitative nuclease protection assay: six representative cytochrome P450 genes, four hepatic transporters, three Phase II conjugating enzymes, and one endogenous metabolism gene involved in cholesterol synthesis. Cells were exposed at 5 concentrations (0.004-40 µM) for 6, 24 or 48 hr. Gene targets are sentinels for five nuclear receptor signaling pathways: AhR, CAR, PXR, FXR, and PPARα. All gene are associated with nuclear receptor pathways: CYP1A1 and CYP1A2 with AHR; ABCB1, ABCG2, CYP2B6, CYP2C9, CYP2C19 and UGT1A1 with CAR; CYP3A4, GSTA2, SLCO1B1 and SULT2A1 with PXR; HMGCS2 with PPARA; and ABCB11 with FXR. […] Detailed description of the methods, data and analysis methods for this dataset will be presented in a separate publication.

[3] = HepG2, scale not given, looks like -log10 of molar active concentration, 0 = no activity
[4] = scale not given, looks like -log10 of molar active concentration, 0 = no activity

Compound	NVS_NR_hPPARa (PPARa (PPARA))	ATG_ERRg_TRANS [1, 3]	ATG_ERE_CIS [2, 4]	CLZD_HMGCS2_24 (HMGCS2)	ATG_ERRg_TRANS ([1]; HepG2 reporter)	ATG_ERE_CIS [2]
CCSC(=O)N(CC(C)C)CC(C)C [r49]	0	0	0	0	–	–
CCc1nn(C)c(C(=O)NCc2ccc(C(C)(C)C)cc2)c1Cl [r291]	–	–	–	–	5.301	–
O=C1C2CC=CCC2C(=O)N1SC(Cl)(Cl)Cl (centres unmarked) [r51]	0	0	0	0	–	–
Cc1c(COC(=O)C2C(/C=C(\Cl)C(F)(F)F)C2(C)C)cccc1-c1ccccc1 (centres unmarked) [r39]	0	–	0	0	–	–
CCN(CC)C(=O)C(C)Oc1cccc2ccccc12 (centres unmarked) [row 219]	–	–	–	–	–	4.481
CC(C)OC(=O)Nc1cccc(Cl)c1 [r59]	0	0	0	0	–	–
COc1cc(Cl)c(OC)cc1Cl [r57]	0	0	0	0	–	–
CNC(=O)Oc1cccc2ccccc12 [r52]	0	–	4.244	0	–	–
CC(C)(c1ccc(O)cc1)c1ccc(O)cc1 [r40]	0	0	6.194	0	–	–
O=C(Nc1ccccc1-c1ccc(Cl)cc1)c1cccnc1Cl [r42]	0	0	0	0	–	–
CC1=C(C(=O)Nc2ccccc2)SCCO1 [r53]	0	0	0	0	–	–
Nc1cnn(-c2ccccc2)c(=O)c1Cl [r56]	0	–	0	0	–	–
COc1nc(C)nc(NC(=O)NS(=O)(=O)c2ccccc2Cl)n1 [r63]	0	0	0	0	–	–
OB(O)O [r41]	0	0	0	0	–	–
C=CCOC(=O)C(C)(C)OC(=O)c1cc(-n2c(=O)cc(C(F)(F)F)n(C)c2=O)ccc1Cl [r47]	0	0	0	0	–	–
CCCCOCN(C(=O)CCl)c1c(CC)cccc1CC [r46]	0	0	0	0	–	–
CC(C)N1C(=O)c2ccccc2NS1(=O)=O [r37]	0	0	0	0	–	–
COc1nc(C)nc(NC(=O)NS(=O)(=O)c2ccccc2Cl)n1 [r62]	0	0	0	0	–	–
COC(=O)c1ccccc1CS(=O)(=O)NC(=O)Nc1nc(OC)cc(OC)n1 [r33]	0	0	0	0	–	–
CCC(C)n1c(=O)[nH]c(C)c(Br)c1=O (centres unmarked) [r43]	0	0	0	0	–	–
COc1ccc(-c2ccccc2)cc1NNC(=O)OC(C)C [r38]	0	4.469	0	0	–	–
CC(C)N1C(=O)N(c2ccccc2)CS/C1=N\C(C)(C)C [r45]	0	0	0	0	–	–
Cc1ccccc1CO[C@@H]1C[C@@]2(C(C)C)CC[C@]1(C)O2 [r64]	0	–	–	0	–	–
CCC(C)Nc1c([N+](=O)[O-])cc(C(C)(C)C)cc1[N+](=O)[O-] (centres unmarked) [r48]	0	0	0	0	–	–
CCOC(=O)C(Cl)Cc1cc(-n2nc(C)n(C(F)F)c2=O)c(F)cc1Cl (centres unmarked) [r54]	0	–	0	0	–	–
N#Cc1cc(Br)c(O)c(Br)c1 [r44]	0	0	0	0	–	–
N#Cc1c(Cl)c(Cl)c(Cl)c(C#N)c1Cl [r58]	0	–	0	0	–	–
